Results taken from patent US11020360B2, “Methods, compounds, compositions and vehicles for delivering 3-amino-1-propanesulfonic acid” (Bellus Health, Inc., priority 2006, dated 2021).
Structures can show the parent of a compound that is named as a salt.

How the values were obtained:
[1] = Human whole blood stability; format: in vitro ADME; conditions: 37° C.
Procedure: (§1) Test compounds were incubated for a total of 240 minutes at 37° C. in whole mouse and whole human blood. The compounds were added at time-point 0 and sample aliquots were withdrawn at each time point (usually 0, 60 and 240 minutes). The samples were extracted using protein precipitation. Analysis of extracted samples was achieved using HPLC with MS detection. Several types of HPLC columns and mobile phase were used depending of the polarity of the compound. The compound stability was determined by the % of compound remaining at 240 minutes (peak response of compound at 240 minutes/peak response at 0 minutes×100).

[2] = Mouse whole blood stability; format: in vitro ADME; conditions: 37° C.
Procedure: as §1

Blood stability (% of compound remaining after 240 min.) Human Blood [1]	Blood stability (% of compound remaining after 240 min.) Mouse Blood [2]	Structure (SMILES)
++ (++: 30-75%)	+ (+: <30%)	CC(C)(C)C(=O)OC(OC(=O)NCCCS(=O)(=O)O)C1CCCCC1 (stereo not drawn) [Compound C20]
++ (++: 30-75%)	+ (+: <30%)	CC(OC(=O)NCCCS(=O)(=O)O)OC(=O)C(C)(C)C (stereo not drawn) [Compound C15]
+++ (+++: >75%)	+++ (+++: >75%)	CC(C)(CCC(=O)NCCCS(=O)(=O)O)C(=O)O [Compound B4]
+ (+: <30%)	+ (+: <30%)	CC(OC(=O)CCC(=O)OCc1ccccc1)OC(=O)NCCCS(=O)(=O)O (stereo not drawn) [Compound C5]
++ (++: 30-75%)	++ (++: 30-75%)	CC(OC(=O)CCCCC(=O)O)OC(=O)NCCCS(=O)(=O)O (stereo not drawn) [Compound C9]
+++ (+++: >75%)	+ (+: <30%)	CC(OC(=O)CC(C)(C)CC(=O)OCc1ccccc1)OC(=O)NCCCS(=O)(=O)O (stereo not drawn) [Compound C7]
++ (++: 30-75%)	+ (+: <30%)	CC(=O)OC(OC(=O)NCCCS(=O)(=O)O)C(C)C (stereo not drawn) [Compound C22]
++ (++: 30-75%)	+ (+: <30%)	CC(=O)OC(OC(=O)NCCCS(=O)(=O)O)C(C)(C)C (stereo not drawn) [Compound C24]
+++ (+++: >75%)	+++ (+++: >75%)	CC(OC(=O)CC(C)(C)CC(=O)O)OC(=O)NCCCS(=O)(=O)O (stereo not drawn) [Compound C8]
+ (+: <30%)	+ (+: <30%)	CC(OC(=O)CCCCC(=O)OCc1ccccc1)OC(=O)NCCCS(=O)(=O)O (stereo not drawn) [Compound C10]
+++ (+++: >75%)	++ (++: 30-75%)	CC(OC(=O)NCCCS(=O)(=O)O)OC(=O)C(C)(C)c1ccccc1 (stereo not drawn) [Compound C14]
	+ (+: <30%)	CC(OC(=O)NCCCS(=O)(=O)O)OC(=O)C1CCCCC1 (stereo not drawn) [Compound C17]
+++ (+++: >75%)	++ (++: 30-75%)	CC(C)(CC(=O)O)CC(=O)NCCCS(=O)(=O)O [Compound B3, 3,3-dimethyl-5-oxo-5-[(3-sulfopropyl)amino]pentanoic Acid Sodium Salt]
+++ (+++: >75%)	+++ (+++: >75%)	O=C(O)CCC(=O)NCCCS(=O)(=O)O [Compound B5]
	+ (+: <30%)	CC(=O)OC(C)OC(=O)NCCCS(=O)(=O)O (stereo not drawn) [Compound C19, 4-aza-7-methyl-6,8,-dioxa-5,9,-dioxo-1-decanesulfonic acid Sodium Salt]
+++ (+++: >75%)	+++ (+++: >75%)	CC(OC(=O)CCCC(=O)O)OC(=O)NCCCS(=O)(=O)O (stereo not drawn) [Compound C11]
	+ (+: <30%)	CC(OC(=O)NCCCS(=O)(=O)O)OC(=O)C(C)C (stereo not drawn) [Compound C18]
++ (++: 30-75%)	+ (+: <30%)	CC(OC(=O)NCCCS(=O)(=O)O)OC(=O)c1ccccc1 (stereo not drawn) [Compound C16, 4-aza-7-methyl-6,8,-dioxa-5,9,-dioxo-9-phenyl-1-nonanesulfonic Acid Sodium Salt]
+++ (+++: >75%)	++ (++: 30-75%)	CC(OC(=O)CCC(=O)O)OC(=O)NCCCS(=O)(=O)O (stereo not drawn) [Compound C4]
+ (+: <30%)	+ (+: <30%)	CC(=O)Oc1ccc(COC(=O)NCCCS(=O)(=O)O)cc1 [Compound C1, 3-(p-acetyloxybenzyloxycarbonyl)amino-1-propanesulfonic Acid Sodium Salt]
+ (+: <30%)	+ (+: <30%)	CC(OC(=O)NCCCS(=O)(=O)O)OC(=O)C(C)(C)c1cccs1 (stereo not drawn) [Compound C13]
++ (++: 30-75%)	+ (+: <30%)	CC(OC(=O)CCCC(=O)OCc1ccccc1)OC(=O)NCCCS(=O)(=O)O (stereo not drawn) [Compound C12]
++ (++: 30-75%)	+ (+: <30%)	CC(C)C(OC(=O)NCCCS(=O)(=O)O)OC(=O)C(C)(C)C (stereo not drawn) [Compound C23]

More lines, now with the values behind:

Structure (SMILES)	Blood stability (% of compound remaining after 240 min.) Human Blood [1]	Blood stability (% of compound remaining after 240 min.) Mouse Blood [2]
N[C@@H](Cc1c[nH]cn1)C(=O)NCCCS(=O)(=O)O [Compound A13]	+++ (+++: >75%)	+++ (+++: >75%)
CC(C)(N)C(=O)NCCCS(=O)(=O)O [Compound A14]	+++ (+++: >75%)	+++ (+++: >75%)
CSCC[C@H](N)C(=O)NCCCS(=O)(=O)O [Compound A6]	++ (++: 30-75%)	+ (+: <30%)
O=C(NCCCS(=O)(=O)O)[C@@H]1CCCN1 [Compound A3]		++ (++: 30-75%)
N[C@H](C(=O)NCCCS(=O)(=O)O)c1ccccc1 [Compound A15]	++ (++: 30-75%)	+ (+: <30%)
C[C@H](N)C(=O)NCCCS(=O)(=O)O [Compound A8]	+ (+: <30%)	++ (++: 30-75%)
NCC(=O)NCCCS(=O)(=O)O [Compound A10]	++ (++: 30-75%)	++ (++: 30-75%)
N[C@@H](CCC(=O)OCc1ccccc1)C(=O)NCCCS(=O)(=O)O [Compound A19]	+ (+: <30%)	+ (+: <30%)
CC(C)C[C@H](N)C(=O)NCCCS(=O)(=O)O [Compound A5]	+ (+: <30%)	+ (+: <30%)
N[C@@H](Cc1ccccc1)C(=O)NCCCS(=O)(=O)O [Compound A1]		+ (+: <30%)
N[C@@H](Cc1c[nH]c2ccccc12)C(=O)NCCCS(=O)(=O)O [Compound A16]	+++ (+++: >75%)	++ (++: 30-75%)
CSCC[C@@H](N)C(=O)NCCCS(=O)(=O)O [Compound A12]	+++ (+++: >75%)	+++ (+++: >75%)
C[C@@H](N)C(=O)NCCCS(=O)(=O)O [Compound A9]	+++ (+++: >75%)	+++ (+++: >75%)
CCC(C)[C@H](N)C(=O)NCCCS(=O)(=O)O (stereo partly drawn) [Compound A11]	+++ (+++: >75%)	+++ (+++: >75%)
